Data on one molecule can be found in patent publication US4511509A, “3-Alkylidine azetidine compound and their production” (Kowa Co. Ltd., priority 1982, dated 1985).

Experiment in all cases: antibacterial activity, MIC (Table)
Format in all cases: cell-based

Assay [1] has as its system Escherichia coli 59 (PC ase II).
The subject of assay [2] is Escherichia coli 68 (PC ase IV).
Assay [3] deals with Bacillus subtilis ATCC 6633. Conditions: ATCC6633.
Assay [4] relates to Streptococcus aureus 209p JC-1.
Another assay concerns Proteus vulgaris IID874.
Assay [5] deals with Pseudomonas putida IID 5121. To be noted: IID5121.
The test system of another assay is Serratia marcescens NHL.
Another assay deals with Proteus inconstans 113. Conditions: Providencia alcalifaciens.
For assay [6], the system named is Escherichia coli NIHJ JC-2. To be noted: NIHJJC2.
In assay [7] the test system is Escherichia coli RECl (PC ase I).
Assay [8] deals with Pseudomonas aeruginosa NCTC 10490. To be noted: NCTC10490.
The test system of another assay is Salmonella typhi H - 901. Conditions: Salmonella enterica.
For a further assay, the system named is Proteus inconstans 93. To be noted: Providencia alcalifaciens.
In assay [9] the test system is Klebsiella pneumoniae PCO 602. Conditions: PCO602.
The subject of assay [10] is Streptococcus aureus Smith.

In brackets after ≈: the same amount, converted by molar mass.

In the case of `C/C(CO)=C1\C(=O)N2C(C(=O)O)=C(Sc3ncccn3)C[C@H]12` [(5R)6(E)-(1-methyl-2-hydroxyethylidene)-3-(2-pyrimidinylthio)-1-azabicyclo[3.2.0]hept-2-en-7-one-2-carboxylic acid], the MIC was determined as 0.2 µg/mL (≈ 0.626 µM) in assay [1]; 0.2 µg/mL (≈ 0.626 µM) in assay [2]; 0.78 µg/mL (≈ 2.44 µM) in assay [3]; 0.05 µg/mL (≈ 0.157 µM) in assay [4]; 0.05 µg/mL (≈ 0.157 µM) against Proteus vulgaris IID874; 100 µg/mL (≈ 313 µM) in assay [5]. In addition, the MIC against Serratia marcescens NHL amounted to 0.78 µg/mL (≈ 2.44 µM); with Proteus inconstans 113 it was 0.78 µg/mL (≈ 2.44 µM); in [6], 0.39 µg/mL (≈ 1.22 µM); in [7], 0.39 µg/mL (≈ 1.22 µM); in [8], 1.56 µg/mL (≈ 4.89 µM); in the assay on Salmonella typhi H - 901, 0.2 µg/mL (≈ 0.626 µM). Besides, the MIC was 0.2 µg/mL (≈ 0.626 µM) against Proteus inconstans 93, 0.39 µg/mL (≈ 1.22 µM) in assay [9] and 0.2 µg/mL (≈ 0.626 µM) in assay [10].

Usually MIC stands for the lowest concentration that inhibits growth of the organism. Low readings indicate inhibition by little substance, high ones a need for much substance.
